Measurements from patent US4482565A, “β-Lactam-containing antibacterial agents and β-lactamase inhibitors” (Farmitalia Carlo Erba S.p.A., priority 1981, dated 1984).
≈ marks a conversion by molar mass, not a printed value. Like-named read-outs stand apart in the source and are kept apart here.

How the values were obtained:
Type in all cases: cell-based
[1] = system: Escherichia coli R 57 B; test: in vitro antibacterial activity (MIC); conditions: R57B, read-out: MIC (minimal inhibitory concentration)
[2] = system: Streptococcus pyogenes; test: in vitro antibacterial activity (MIC); conditions: read-out: MIC (minimal inhibitory concentration)
[3] = system: Escherichia coli B Cef R; test: in vitro antibacterial activity (MIC); conditions: read-out: MIC (minimal inhibitory concentration)
[4] = system: Salmonella Saint Paul F20; test: in vitro antibacterial activity (MIC); conditions: read-out: MIC (minimal inhibitory concentration)
[5] = system: Proteus mirabilis V15; test: in vitro antibacterial activity (MIC); conditions: read-out: MIC (minimal inhibitory concentration)
[6] = system: Staphylococcus aureus PV2; test: in vitro antibacterial activity (MIC); conditions: read-out: MIC (minimal inhibitory concentration)
[7] = system: Enterobacter sp V19; test: in vitro antibacterial activity (MIC); conditions: read-out: MIC (minimal inhibitory concentration)
[8] = system: Staphylococcus aureus 153; test: in vitro antibacterial activity (MIC); conditions: lactamase producer, read-out: MIC (minimal inhibitory concentration)
[9] = system: Pseudomonas aeruginosa FI; test: in vitro antibacterial activity (MIC); conditions: collection strain, read-out: MIC (minimal inhibitory concentration)
[10] = system: Enterobacter cloacae P 99; test: in vitro antibacterial activity (MIC); conditions: P99, read-out: MIC (minimal inhibitory concentration)
[11] = system: Staphylococcus aureus 209P; test: in vitro antibacterial activity (MIC); conditions: collection strain, read-out: MIC (minimal inhibitory concentration)
[12] = system: Proteus mirabilis 525; test: in vitro antibacterial activity (MIC)
[13] = system: Enterobacter cloacae 214; test: in vitro antibacterial activity (MIC); conditions: lactamase producer, read-out: MIC (minimal inhibitory concentration)
[14] = system: Staphylococcus aureus Smith; test: in vitro antibacterial activity (MIC); conditions: collection strain, read-out: MIC (minimal inhibitory concentration)
[15] = system: Escherichia coli V23; test: in vitro antibacterial activity (MIC); conditions: read-out: MIC (minimal inhibitory concentration)
[16] = system: Salmonella typhimurium; test: in vitro antibacterial activity (MIC); conditions: Salmonella enterica, Salmonella typhimurium (first listing), read-out: MIC (minimal inhibitory concentration)
[17] = system: Escherichia coli P 453; test: in vitro antibacterial activity (MIC)
[18] = system: Escherichia coli B; test: in vitro antibacterial activity (MIC); conditions: read-out: MIC (minimal inhibitory concentration)
[19] = system: Salmonella abortivoequina; test: in vitro antibacterial activity (MIC); conditions: collection strain, read-out: MIC (minimal inhibitory concentration)
[20] = system: Proteus mirabilis; test: in vitro antibacterial activity (MIC), collection strain; conditions: read-out: MIC (minimal inhibitory concentration)
[21] = system: Escherichia coli V14; test: in vitro antibacterial activity (MIC); conditions: read-out: MIC (minimal inhibitory concentration)
[22] = system: Salmonella panamae F15; test: in vitro antibacterial activity (MIC)
[23] = system: Escherichia coli RGN 238; test: in vitro antibacterial activity (MIC); conditions: RGN238, lactamase producer, read-out: MIC (minimal inhibitory concentration)
[24] = system: Escherichia coli R 997; test: in vitro antibacterial activity (MIC); conditions: R997, read-out: MIC (minimal inhibitory concentration)
[25] = system: Klebsiella pneumoniae ATCC 10031; test: in vitro antibacterial activity (MIC), second listing of the strain; conditions: ATCC10031, collection strain (second listing), read-out: MIC (minimal inhibitory concentration)
[26] = system: Salmonella typhimurium; test: in vitro antibacterial activity (MIC), collection strain; conditions: Salmonella enterica, read-out: MIC (minimal inhibitory concentration)
[27] = system: Pseudomonas aeruginosa; test: in vitro antibacterial activity (MIC); conditions: read-out: MIC (minimal inhibitory concentration)
[28] = system: Escherichia coli R 6 K; test: in vitro antibacterial activity (MIC); conditions: R6K, read-out: MIC (minimal inhibitory concentration)
[29] = system: Proteus vulgaris V15; test: in vitro antibacterial activity (MIC); conditions: read-out: MIC (minimal inhibitory concentration)
[30] = system: Salmonella derby F14; test: in vitro antibacterial activity (MIC); conditions: Salmonella enterica, read-out: MIC (minimal inhibitory concentration)
[31] = system: Shigella flexneri; test: in vitro antibacterial activity (MIC); conditions: read-out: MIC (minimal inhibitory concentration)
Protocol: A series of tests was carried out in vitro to compare the activities of (5R)-acetoxymethyl-2-acetoxymethyl-2-penum-3-carboxylate (Laboratory code FCE/20077/B40/341), (5R) acetoxymethyl-2-[(1-methyl-1H-tetrazol-5-yl)-thiomethyl]-2-penem-3-carboxylate (compound A), three reference compounds (ampicillin, cefoxitin, and thienamycin), and compound 387, which is (5R)-2-acetoxymethyl-6-(1-hydroxyethyl)-2-penem-3-carboxylic acid. The acetoxymethoxy ester of compound 387 is prepared in Example 51 and the sodium salt of the acid is prepared in Example 98 infra. Table 1 below reports the results of the above assays as MIC (minimal inhibitory concentration).

[32] = system: Escherichia coli RP 1; test: in vitro antibacterial activity (MIC); conditions: RP1, read-out: MIC (minimal inhibitory concentration)
[33] = system: Klebsiella pneumoniae ATCC 10031; test: in vitro antibacterial activity (MIC); conditions: ATCC10031, Klebsiella pneumoniae ATCC 10031 (first listing), read-out: MIC (minimal inhibitory concentration)
[34] = system: Escherichia coli R 46; test: in vitro antibacterial activity (MIC)
[35] = system: Klebsiella sp. R2; test: in vitro antibacterial activity (MIC); conditions: read-out: MIC (minimal inhibitory concentration)
[36] = system: Pseudomonas aeruginosa ATCC 2598; test: in vitro antibacterial activity (MIC); conditions: ATCC2598, collection strain, read-out: MIC (minimal inhibitory concentration)
[37] = system: Klebsiella aerogenes ATCC 1082 E; test: in vitro antibacterial activity (MIC)
[38] = system: Salmonella montevideo F16; test: in vitro antibacterial activity (MIC); conditions: Salmonella enterica, read-out: MIC (minimal inhibitory concentration)
[39] = in vitro, Proteus mirabilis 525, read-out: MIC (minimal inhibitory concentration)
[40] = in vitro, Escherichia coli B, collection strain
[41] = in vitro, Salmonella panamae F15, read-out: MIC (minimal inhibitory concentration)

Row | SMILES | MIC ([2]; in vitro) | MIC [3] | MIC [4] | MIC [5] | MIC [6] | MIC [7] | MIC [8] | MIC [9] | MIC [10] | MIC [11] | MIC [12, 39] | MIC [14] | MIC [15] | MIC [16] | MIC [21] | MIC [29] | MIC [30] | MIC [31] | MIC [33] | MIC [38] | further results
1 | CC1(C)S[C@@H]2[C@H](NC(=O)[C@H](N)c3ccccc3)C(=O)N2[C@H]1C(=O)O [Ampicillin] | 3.12 µg/mL (≈ 8.93 µM) | > 100 µg/mL | 0.78 µg/mL (≈ 2.23 µM) | ≤ 0.19 µg/mL | ≤ 0.19 µg/mL | > 100 µg/mL | 1.56 µg/mL (≈ 4.46 µM) | > 100 µg/mL | > 100 µg/mL | ≤ 0.19 µg/mL | 0.39 µg/mL (≈ 1.12 µM) | ≤ 0.19 µg/mL | 3.12 µg/mL (≈ 8.93 µM) | 0.78 µg/mL (≈ 2.23 µM) | 1.56 µg/mL (≈ 4.46 µM) | 1.56 µg/mL (≈ 4.46 µM) | 0.78 µg/mL (≈ 2.23 µM) | ≤ 0.19 µg/mL | 50 µg/mL (≈ 143 µM) | 0.78 µg/mL (≈ 2.23 µM) | MIC ([1]; in vitro, Escherichia coli R 57 B, lactamase producer): 25 µg/mL (≈ 71.5 µM); MIC [13]: > 100 µg/mL; MIC ([17]; P453, in vitro, Escherichia coli P 453, lactamase producer, read-out: MIC (minimal inhibitory concentration)): > 100 µg/mL; MIC [18, 40]: 0.39 µg/mL (≈ 1.12 µM); MIC [19]: 0.19 µg/mL (≈ 0.544 µM); MIC ([20]; in vitro, collection strain): > 100 µg/mL; MIC [22, 41]: 0.78 µg/mL (≈ 2.23 µM); MIC [23]: > 100 µg/mL; MIC [24]: > 100 µg/mL; MIC [25]: 25 µg/mL (≈ 71.5 µM); MIC ([26]; in vitro, Salmonella Typhimurium, collection strain (second listing)): 0.78 µg/mL (≈ 2.23 µM); MIC ([27]; in vitro): 25 µg/mL (≈ 71.5 µM); MIC [28]: > 100 µg/mL; MIC [32]: > 100 µg/mL; MIC ([34]; R46, in vitro, Escherichia coli R 46, lactamase producer, read-out: MIC (minimal inhibitory concentration)): 25 µg/mL (≈ 71.5 µM); MIC [35]: 50 µg/mL (≈ 143 µM); MIC [36]: > 100 µg/mL; MIC ([37]; ATCC1082, in vitro, Klebsiella aerogenes ATCC 1082 E, lactamase producer, read-out: MIC (minimal inhibitory concentration)): > 100 µg/mL
2 | CO[C@@]1(NC(=O)Cc2cccs2)C(=O)N2C(C(=O)O)=C(COC(N)=O)CS[C@@H]21 [Cefoxitin] | – | > 100 µg/mL | 3.12 µg/mL (≈ 7.3 µM) | 0.78 µg/mL (≈ 1.82 µM) | 0.78 µg/mL (≈ 1.82 µM) | 12.5 µg/mL (≈ 29.2 µM) | 0.78 µg/mL (≈ 1.82 µM) | 6.25 µg/mL (≈ 14.6 µM) | 100 µg/mL (≈ 234 µM) | 0.78 µg/mL (≈ 1.82 µM) | – | 0.78 µg/mL (≈ 1.82 µM) | 12.5 µg/mL (≈ 29.2 µM) | 3.12 µg/mL (≈ 7.3 µM) | 3.12 µg/mL (≈ 7.3 µM) | 0.78 µg/mL (≈ 1.82 µM) | 3.12 µg/mL (≈ 7.3 µM) | 0.78 µg/mL (≈ 1.82 µM) | 0.78 µg/mL (≈ 1.82 µM) | 3.12 µg/mL (≈ 7.3 µM) | MIC ([1]; Escherichia coli): 1.56 µg/mL (≈ 3.65 µM); MIC [2]: 1.56 µg/mL (≈ 3.65 µM); MIC ([12]; Proteus mirabilis, 525, read-out: MIC (minimal inhibitory concentration)): 1.56 µg/mL (≈ 3.65 µM); MIC [13]: > 100 µg/mL; MIC ([17]; Escherichia coli, P453, read-out: MIC (minimal inhibitory concentration)): 1.56 µg/mL (≈ 3.65 µM); MIC ([18]; Escherichia coli): 1.56 µg/mL (≈ 3.65 µM); MIC [19]: 0.78 µg/mL (≈ 1.82 µM); MIC [20]: 1.56 µg/mL (≈ 3.65 µM); MIC ([22]; Salmonella, F15, read-out: MIC (minimal inhibitory concentration)): 1.56 µg/mL (≈ 3.65 µM); MIC [23]: 3.12 µg/mL (≈ 7.3 µM); MIC [24]: 6.25 µg/mL (≈ 14.6 µM); MIC [25]: 0.78 µg/mL (≈ 1.82 µM); MIC ([26]; TYPHIMURIUM): 1.56 µg/mL (≈ 3.65 µM); MIC [27]: 6.25 µg/mL (≈ 14.6 µM); MIC [28]: 3.1 µg/mL (≈ 7.25 µM); MIC [32]: 1.56 µg/mL (≈ 3.65 µM); MIC ([34]; Escherichia coli, R46, read-out: MIC (minimal inhibitory concentration)): 1.56 µg/mL (≈ 3.65 µM); MIC [35]: 12.5 µg/mL (≈ 29.2 µM); MIC [36]: > 100 µg/mL; MIC ([37]; Klebsiella aerogenes, ATCC1082, read-out: MIC (minimal inhibitory concentration)): 6.25 µg/mL (≈ 14.6 µM)
3 | CC(=O)OCOC(=O)C1=C(CSc2nnnn2C)S[C@@H]2CC(=O)N12 [Compound A, (5R)-Acetoxymethyl-2-[(1-methyl-1-H-tetrazol-5-yl)-thiomethyl]-2-penem-3-carboxylate] | 0.78 µg/mL (≈ 2.1 µM) | – | 0.78 µg/mL (≈ 2.1 µM) | 0.78 µg/mL (≈ 2.1 µM) | 0.78 µg/mL (≈ 2.1 µM) | > 100 µg/mL | 0.78 µg/mL (≈ 2.1 µM) | – | – | 0.39 µg/mL (≈ 1.05 µM) | 0.78 µg/mL (≈ 2.1 µM) | 0.39 µg/mL (≈ 1.05 µM) | 0.78 µg/mL (≈ 2.1 µM) | 0.78 µg/mL (≈ 2.1 µM) | 0.78 µg/mL (≈ 2.1 µM) | 6.25 µg/mL (≈ 16.8 µM) | 0.78 µg/mL (≈ 2.1 µM) | 0.39 µg/mL (≈ 1.05 µM) | 3.12 µg/mL (≈ 8.4 µM) | 0.78 µg/mL (≈ 2.1 µM) | MIC [18, 40]: 0.78 µg/mL (≈ 2.1 µM); MIC [22, 41]: 0.78 µg/mL (≈ 2.1 µM); MIC ([27]; in vitro): 0.39 µg/mL (≈ 1.05 µM)
